In patent US10766902B2, “Wee-1 inhibiting pyrazolopyrimidinone compounds” (ALMAC DISCOVERY LIMITED, priority 2016, dated 2020) one finds IC50 and EC50 data, which are given here for 17 compounds.

Where two headings read alike, the source gives them in different places.

The target of one test is Wee-1 kinase (Homo sapiens (Human), UniProt P30291). Put plainly: Measurement of Wee-1 kinase activity (ADP-Glo luminescence). The format is biochemical. In outline: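 Activated Wee-1 preincubated 30 min at RT with compound in Tris/MgCl2 buffer with BSA and DTT, then reacted 1 h at RT with poly(Lys,Tyr 4:1) (2.0 μg/mL) and 30 μM ATP as added aliquot. ADP formed measured by ADP-Glo luminescence; IC50 by non-linear regression of % inhibition.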
A general note: ADP-Glo turns the ADP formed in a reaction into a luminescent signal.

For test [1], the system named is phosphorylation of Cdc2 at Tyr15. The experiment in a line: ELISA for phosphorylation of Cdc2 at Tyr15 in HT-29 / HCT-116 cells. The test is classed as cell-based. The settings on record: Homo sapiens. Here is the method:
Method 2: Determining the Effect of Compounds on the Phosphorylation of Cdc2 at Tyr15
The colorectal cancer cell lines HT-29 and HCT-116 were purchased from the ATCC and routinely maintained in McCoy's Medium (Invitrogen) supplemented with 10% Foetal Calf Serum.
The cells were trypsinised from their growing vessel and counted, 100 μL of cell suspension containing 6000 cells was pipetted into black 96 well Co-star plates and incubated overnight to allow adherence to the surface at a temperature of 37° C. and an atmosphere of 5% CO2. Test compounds were formulated in DMSO and diluted in foetal calf serum supplemented medium. Incubating medium was removed by aspiration and diluted drug supplemented medium added to each well.
The plate was returned to the incubator for an additional eight hours at 37° C. and an atmosphere of 5% CO2. Post incubation, the drug supplemented medium was aspirated from each well and the cells were washed once in ice-cold phosphate buffered saline (PBS). 100 μL of cell lysis buffer (Cell Signalling Technologies #9803) containing 20 mM Tris, 150 mM NaCl, 1 mM EDTA, 1 mM EGTA, 1% Triton-X100, 2.5 mM sodium pyrophosphate, 1 mM glycerophosphate, 1 mM Na3VO4 and 1 μg/mL leupeptin was added to each well of the 96 well plate and incubated at 4° C. for 30 min. The samples on the plate were snap frozen at −80° C. until required. Immediately before the continuation of the assay, the sample plate was thawed and centrifuged at 4° C. for 10 min and the supernatant transferred to secondary tubes or 96 well plate.
Cell supernatant was mixed in a ratio of 1:1 with sample dilutent buffer and vortexed for one minute. 100 μL of diluted sample was pipetted into pre-coated plates containing a rabbit polyclonal antibody for phospho-cdc2 (Tyr15) (Cell Signalling Technologies PathScan kit #7176). The plate was sealed and incubated overnight at 4° C.
The plate seal was removed and the well contents aspirated, followed by 3×5 min washes with 200 μL of diluted wash buffer. Between each wash the plate was tapped firmly onto blotting paper to ensure the removal of all kit solution. 100 μL of kit detection antibody was added to each well and the plate re-sealed and incubated at 37° C. for 1 h. Post incubation the plate was washed and processed in a similar manner to that previously described.
100 μL of horseradish peroxidise-linked secondary antibody was added to each test well, the plate sealed and incubated for thirty minutes at 37° C. Post incubation, the plate was washed as previously stated, followed by the addition of 100 μL of 3,3′,5,5′ tetramethylbenzidine (TMB reagent). The plate was sealed and incubated at RT for 30 min.
100 μL of stop solution was added to each well and the underside of the plate wiped with a lint-free tissue, prior to spectrophotometric determination. Absorbance from each well was read at 450 nm within 30 min of the addition of the stop solution.
The percentage of phospho-cdc2 was calculated compared to DMSO control and plotted versus the concentration of inhibitor using GraphPad Prism. Data was fitted using non-linear regression analysis and IC50 values generated.
In general terms: ELISA stands for enzyme-linked immunosorbent assay.

[2] abbreviates: 8 h, Table 2, colorectal cancer cells, eight hours incubation, read-out: ELISA p-CDC2 EC50.

Chain of Wee-1 kinase (P30291 whole entry): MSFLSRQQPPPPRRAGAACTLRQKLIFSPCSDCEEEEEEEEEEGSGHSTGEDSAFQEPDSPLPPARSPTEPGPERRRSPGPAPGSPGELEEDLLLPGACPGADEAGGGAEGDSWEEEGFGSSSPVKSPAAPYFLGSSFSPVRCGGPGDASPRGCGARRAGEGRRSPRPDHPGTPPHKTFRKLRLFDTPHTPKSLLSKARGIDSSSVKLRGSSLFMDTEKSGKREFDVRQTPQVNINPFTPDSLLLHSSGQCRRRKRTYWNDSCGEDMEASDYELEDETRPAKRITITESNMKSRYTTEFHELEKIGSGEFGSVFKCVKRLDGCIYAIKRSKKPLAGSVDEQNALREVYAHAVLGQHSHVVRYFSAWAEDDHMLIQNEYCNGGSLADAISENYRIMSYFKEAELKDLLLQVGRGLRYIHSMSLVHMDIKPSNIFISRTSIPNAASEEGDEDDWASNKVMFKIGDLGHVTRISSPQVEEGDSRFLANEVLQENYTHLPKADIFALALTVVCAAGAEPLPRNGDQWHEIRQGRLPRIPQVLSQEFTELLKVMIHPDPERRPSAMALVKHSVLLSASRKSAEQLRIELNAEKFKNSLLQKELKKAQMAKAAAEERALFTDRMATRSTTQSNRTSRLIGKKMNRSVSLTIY

For `C=CCn1c(=O)c2cnc(Nc3ccc(N4CCN(C(C)C)CC4)cc3)nc2n1-c1cccc(N=S(C)(C)=O)n1` [Example 7, 1-(6-{[Dimethyl(oxo)-λ^6-sulfanylidene]amino}pyridine-2-yl)-2-(prop-2-en-1-yl)-6-({4-[4-(propan-2-yl)piperazin-1-yl]phenyl}amino)-1H,2H,3H-pyrazolo[3,4-d]pyrimidin-3-one], at Wee-1 kinase (read-out: Wee1 IC50), the IC50 worked out at 0.7 nM. Moreover, in test [1] (setting [2]), the EC50 amounted to 9 nM.

With `C=CCn1c(=O)c2cnc(Nc3ccc(N4C[C@H]5COC[C@H]5C4)cc3)nc2n1-c1cccc(N=S(C)(C)=O)n1` [Example 67, 6-({4-[(3aR,6aS)-Hexahydro-1H-furo[3,4-c]pyrrol-5-yl]phenyl}amino)-1-(6-{[dimethyl(oxo)-λ^6-sulfanylidene]amino}pyridin-2-yl)-2-(prop-2-en-1-yl)-1H,2H, 3H-pyrazolo[3,4-d]pyrimidin-3-one], the IC50 on Wee-1 kinase (read-out: Wee1 IC50) was found to be 0.1 nM. Moreover, the EC50 in test [1] (setting [2]) was found to be 7 nM.

On to `C=CCn1c(=O)c2cnc(Nc3ccc(N4CCOCC4)c(C)c3)nc2n1-c1cccc(N=S(C)(C)=O)n1` [Example 21, 1-(6-{[Dimethyl(oxo)-λ^6-sulfanylidene]amino}pyridin-2-yl)-6-{[3-methyl-4-(morpholin-4-yl)phenyl]amino}-2-(prop-2-en-1-yl)-1H,2H,3H-pyrazolo[3,4-d]pyrimidin-3-one], for which, on Wee-1 kinase (read-out: Wee1 IC50), the IC50 is 0.1 nM. Further, the EC50 in test [1] (setting [2]) is 2 nM.

In the case of `C=CCn1c(=O)c2cnc(Nc3ccc(N4CCNCC4)c(Cl)c3)nc2n1-c1cccc(N=S(C)(C)=O)n1` [Example 14, 6-{[3-Chloro-4-(piperazin-1-yl)phenyl]amino}-1-(6-{[dimethyl(oxo)-λ^6-sulfanylidene]amino}pyridine-2-yl)-2-(prop-2-en-1-yl)-1H,2H,3H-pyrazolo[3,4-d]pyrimidin-3-one], the IC50 at Wee-1 kinase (read-out: Wee1 IC50) was found to be 0.8 nM. For the same compound, the EC50 in test [1] (setting [2]) was 5 nM.

As to `CC(C)n1c(=O)c2cnc(Nc3ccc(N4CCN(C)CC4)cc3)nc2n1-c1cccc(N=S(C)(C)=O)n1` [Example 20, 1-(6-{[Dimethyl(oxo)-λ^6-sulfanylidene]amino}pyridin-2-yl)-6-{[4-(4-methylpiperazin-1-yl)phenyl]amino}-2-(propan-2-yl)-1H,2H,3H-pyrazolo[3,4-d]pyrimidin-3-one], the IC50 was 1.4 nM on Wee-1 kinase (Table 6, Present Invention, read-out: Wee-1/nM) and 1.4 nM at Wee-1 kinase (read-out: Wee1 IC50). Further, the EC50 in test [1] (setting [2]) came to 47 nM; in test [1] (Table 6, Present Invention, read-out: ELISA/nM), 47 nM.

Regarding `CC(C)n1c(=O)c2cnc(Nc3cccc(C(F)(F)F)c3)nc2n1-c1cccc(N=S(C)(C)=O)n1` [Example 73, 1-(6-{[Dimethyl(oxo)-λ^6-sulfanylidene]amino}pyridin-2-yl)-2-(propan-2-yl)-6-{[3-(trifluoromethyl)phenyl]amino}-1H,2H,3H-pyrazolo[3,4-d]pyrimidin-3-one], the IC50 at Wee-1 kinase (read-out: Wee1 IC50) came out at 66 nM.

For `CC(C)n1c(=O)c2cnc(Nc3ccc(F)cc3F)nc2n1-c1cccc(N=S(C)(C)=O)n1` [Example 65, 6-[(2,4-Difluorophenyl)amino]-1-(6-{[dimethyl(oxo)-λ^6-sulfanylidene]amino}pyridin-2-yl)-2-(propan-2-yl)-1H,2H,3H-pyrazolo[3,4-d]pyrimidin-3-one], the IC50 on Wee-1 kinase (read-out: Wee1 IC50) is 68 nM.

With `C=CCn1c(=O)c2cnc(Nc3cccnc3)nc2n1-c1cccc(N=S(C)(C)=O)n1` [Example 77, 1-(6-{[Dimethyl(oxo)-λ^6-sulfanylidene]amino}pyridin-2-yl)-2-(prop-2-en-1-yl)-6-[(pyridin-3-yl)amino]-1H,2H,3H-pyrazolo[3,4-d]pyrimidin-3-one], the IC50 at Wee-1 kinase (read-out: Wee1 IC50) amounted to 1000 nM.

As for `C=CCn1c(=O)c2cnc(Nc3ccc(N4C[C@@H](C)O[C@@H](C)C4)cc3)nc2n1-c1cccc(N=S(C)(C)=O)n1` [Example 32, 1-(6-{[Dimethyl(oxo)-λ^6-sulfanylidene]amino}pyridin-2-yl)-6-{4-([(2S,6R)-2,6-dimethylmorpholin-4-yl]phenyl)amino}-2-(prop-2-en-1-yl)-1H,2H,3H-pyrazolo[3,4-d]pyrimidin-3-one], the IC50 on Wee-1 kinase (read-out: Wee1 IC50) amounted to 0.5 nM.

For the compound `C=CCn1c(=O)c2cnc(Nc3ccc(C(F)(F)F)nc3)nc2n1-c1cccc(N=S(C)(C)=O)n1` [Example 81, 1-(6-{[Dimethyl(oxo)-λ^6-sulfanylidene]amino}pyridin-2-yl)-2-(prop-2-en-1-yl)-6-{[6-(trifluoromethyl)pyridin-3-yl]amino}-1H,2H,3H-pyrazolo[3,4-d]pyrimidin-3-one], the IC50 at Wee-1 kinase (read-out: Wee1 IC50) turned out to be 1.3 nM.

For the compound `CC(C)n1c(=O)c2cnc(Nc3ccc(N4CCCNCC4)cc3)nc2n1-c1cccc(N=S(C)(C)=O)n1` [Example 46, 6-{[4-(1,4-Diazepan-1-yl)phenyl]amino}-1-(6-{[dimethyl(oxo)-λ^6-sulfanylidene]amino}pyridin-2-yl)-2-(propan-2-yl)-1H,2H,3H-pyrazolo[3,4-d]pyrimidin-3-one], on Wee-1 kinase (read-out: Wee1 IC50), the IC50 is 0.9 nM.

Take `C#CCn1c(=O)c2cnc(Nc3cnn(C(C)C)c3)nc2n1-c1cccc(N=S(C)(C)=O)n1` [Example 94, 1-(6-((Dimethyl(oxo)-λ^6-sulfaneylidene)amino)pyridin-2-yl)-6-((1-isopropyl-1H-pyrazol-4-yl)amino)-2-(prop-2-yn-1-yl)-1,2-dihydro-3H-pyrazolo[3,4-d]pyrimidin-3-one]: on Wee-1 kinase (read-out: Wee1 IC50), the IC50 was 1.2 nM.

Regarding `C=CCn1c(=O)c2cnc(Nc3ccc(F)c(F)c3)nc2n1-c1cccc(N=S(C)(C)=O)n1` [Example 66, 6-[(3,4-Difluorophenyl)amino]-1-(6-{[dimethyl(oxo)-λ^6-sulfanylidene]amino}pyridin-2-yl)-2-(prop-2-en-1-yl)-1H,2H,3H-pyrazolo[3,4-d]pyrimidin-3-one], the IC50 on Wee-1 kinase (read-out: Wee1 IC50) was found to be 0.5 nM.

For the compound `CC(C)n1c(=O)c2cnc(Nc3ccc(N4CCNC(=O)C4)cc3)nc2n1-c1cccc(N=S(C)(C)=O)n1` [Example 48, 4-(4-{[1-(6-{[Dimethyl(oxo)-λ^6-sulfanylidene]amino}pyridin-2-yl)-3-oxo-2-(propan-2-yl)-1H,2H,3H-pyrazolo[3,4-d]pyrimidin-6-yl]amino}phenyl)piperazin-2-one], at Wee-1 kinase (read-out: Wee1 IC50), the IC50 worked out at 0.9 nM.

In the case of `C=CCn1c(=O)c2cnc(Nc3ccc(N4C[C@@H](C)N[C@@H](C)C4)cc3)nc2n1-c1cccc(N=S(C)(C)=O)n1` [Example 17, 1-(6-{[Dimethyl(oxo)-λ^6-sulfanylidene]amino}pyridin-2-yl)-6-({4-[(3R,5S)-3,5-dimethylpiperazin-1-yl]phenyl}amino)-2-(prop-2-en-1-yl)-1H,2H,3H-pyrazolo[3,4-d]pyrimidin-3-one], the IC50 on Wee-1 kinase (read-out: Wee1 IC50) came to 1.1 nM.

On to `C=CCn1c(=O)c2cnc(Nc3cnn(C)c3)nc2n1-c1cccc(N=S2(=O)CCCC2)n1` [Example 78, 6-[(1-Methyl-1H-pyrazol-4-yl)amino]-1-{6-[(1-oxo-1λ^6-thiolan-1-ylidene)amino]pyridin-2-yl}-2-(prop-2-en-1-yl)-1H,2H,3H-pyrazolo[3,4-d]pyrimidin-3-one], for which the IC50 on Wee-1 kinase (read-out: Wee1 IC50) amounted to 2.5 nM.

Regarding `C=CCn1c(=O)c2cnc(Nc3ccc(N4CCN(C)CC4)cc3)nc2n1-c1cccc(S(C)(=O)=NC#N)n1` (stereo not drawn) [Example 1, 1-{6-[(Cyanoimino)(methyl)oxo-λ^6-sulfanyl]pyridin-2-yl}-6-{[4-(4-methylpiperazin-1-yl)phenyl]amino}-2-(prop-2-en-1-yl)-1H,2H,3H-pyrazolo[3,4-d]pyrimidin-3-one], the IC50 at Wee-1 kinase (read-out: Wee1 IC50) came to 1.1 nM.
